Assay results from patent US12090141B2, “Use of clemizole compounds for treatment of inflammatory conditions” (priority 2015, dated 2024).

How the values were obtained:
NASH mice [1] = assay: NAFLD activity score, HE staining of liver sections of NASH mice; format: in vivo, C57BL/6 mice; settings: for NAS (mean ± SD): n = 6, NAFLD activity score by Kleiner criteria; for Steatosis score 0, number of mice: n = 6, score 0 = <5%; for Steatosis score 1, number of mice: n = 6, score 1 = 5-33%; for Lobular inflammation score 1, number of mice: n = 6, score 1 = <2 foci/200x; for Lobular inflammation score 2, number of mice: n = 6, score 2 = 2-4 foci/200x; for Hepatocyte ballooning score 2, number of mice: n = 6, score 2 = Many cells/prominent ballooning; for Lobular inflammation score 3, number of mice: n = 6, score 3 = >4 foci/200x; for Hepatocyte ballooning score 1, number of mice: n = 6, score 1 = Few Balloon cells
Procedure: (§1) NASH was induced in 55 male mice by a single subcutaneous injection of 200 μg streptozotocin (STZ, Sigma-Aldrich, USA) solution 2 days after birth and feeding with high fat diet (HFD, 57 kcal % fat, cat #: HFD32, CLEA Japan, Inc., Japan) after 4 weeks of age. Mice that had been induced have NASH by this method are referred to below as NASH mice.
(§2) Compound D was orally administered at doses of 89 mg/kg twice daily.
(§3) For HE staining, sections were cut from paraffin blocks of liver tissue prefixed in Bouin's solution and stained with Lillie-Mayer's Hematoxylin (Muto Pure Chemicals Co., Ltd., Japan) and eosin solution (Wako Pure Chemical Industries). NAFLD Activity score (NAS) was calculated according to the criteria of Kleiner (Kleiner D E. et al., Hepatology, 2005; 41:1313). To visualize collagen deposition, Bouin's fixed liver sections were stained using picro-Sirius red solution (Waldeck, Germany).
Definition of NAS Components

CYP3A4 = CYP3A4 (Homo sapiens, UniProt P08684); assay: Clemizole metabolism by CYP450 enzymes in vitro; format: in vitro ADME
NASH mice [2] = assay: Whole blood glucose and plasma ALT in NASH mice; format: in vivo, C57BL/6 mice; settings: for Whole blood glucose levels vs Vehicle group: during the study period, non-fasting; for Plasma ALT (mean ± SD): time of sacrifice, n = 6
Procedure: Non-fasting blood was collected in polypropylene tubes with anticoagulant (Novo-heparin, Mochida Pharmaceutical, Japan) from submandibular bleeding at 6 (before dosing), 7 and 8 weeks of age. The collected blood samples were centrifuged and the supernatant were collected as heparinized plasma.
Non-fasting blood glucose in whole blood was measured using LIFE CHECK (EIDIA Co. Ltd., Japan). Plasma ALT was measured by FUJI DRI-CHEM 7000 (Fujifilm Corporation, Japan).

NASH induced HCC mice = assay: Body weight and liver weight in NASH induced HCC mice (sacrifice 18 wk); format: in vivo; settings: for Liver weight (mean ± SD) / Liver-to-body weight ratio (mean ± SD) / Body weight (mean ± SD): NASH induced HCC mice, 18 wk, n = 1-3
Source text: Table 1 below summarizes the treatment schedule.

NASH mice [3] = assay: Body weight and liver weight in NASH mice (sacrifice 9 wk); settings: for Mean body weight on the day of sacrifice vs Vehicle group / Mean liver weight on the day of sacrifice vs Vehicle group / Mean liver-to-body weight ratio on the day of sacrifice vs Vehicle group: 9 wk; for Liver weight (mean ± SD) / Liver-to-body weight ratio (mean ± SD): sacrifice 9 wk, n = 6; for Body weight (mean ± SD): day of sacrifice 9 wk, n = 6, oral from 6 wks, A-C 258 then 129 mg/kg once daily, D 89 mg/kg twice daily
Procedure: as §1, §2
C57BL/6 mice (14-day-pregnant female) were obtained from Japan SLC, Inc. (Shizuoka, Japan). All animals used in the study were housed and cared for in accordance with the Japanese Pharmacological Society Guidelines for Animal Use.

mice with HCC = assay: Macroscopic analysis of liver tumor nodules in mice with HCC; format: in vivo, C57BL/6 mice; settings: for Maximum diameter of nodules (mean ± SD) / Number of nodules (mean ± SD): macroscopically visible tumor nodules on liver surface, n = 1-3
Procedure: The number of macroscopically visible tumor nodules formed on the liver surface was measured. The maximum diameter of macroscopically visible tumor nodules formed on the liver surface was measured.

[4] = system: hepatocellular carcinoma (HCC); assay: Phase IIa open label pilot study of clemizole in subjects with hepatocellular carcinoma; format: in vivo, human
Procedure: The completed study treats up to 40 patients. Initial clinical results from two patients with hepatocellular carcinoma who were administered 200 mg clemizole for 3 or 5 months are described below.

NASH mice [5] = assay: Liver fibrosis area, Sirius red staining in NASH mice; format: in vivo, C57BL/6 mice; settings: for Sirius red-positive area (mean ± SD): liver fibrosis area, n = 6
Procedure: as §3
For quantitative analysis of fibrosis areas bright field images of Sirius red-stained sections were captured around the central vein for livers using a digital camera (DFC280; Leica, Germany) at 200-fold magnification, and the positive areas in 5 fields/section were measured using ImageJ software (National Institute of Health, USA).

HCC [6] = settings: phase 2 study, cited from earlier work
HCC [7] = settings: phase 3 study, cited from earlier work
[8] = treatment period, 4 mice per group

Chain of CYP3A4 (P08684 whole entry): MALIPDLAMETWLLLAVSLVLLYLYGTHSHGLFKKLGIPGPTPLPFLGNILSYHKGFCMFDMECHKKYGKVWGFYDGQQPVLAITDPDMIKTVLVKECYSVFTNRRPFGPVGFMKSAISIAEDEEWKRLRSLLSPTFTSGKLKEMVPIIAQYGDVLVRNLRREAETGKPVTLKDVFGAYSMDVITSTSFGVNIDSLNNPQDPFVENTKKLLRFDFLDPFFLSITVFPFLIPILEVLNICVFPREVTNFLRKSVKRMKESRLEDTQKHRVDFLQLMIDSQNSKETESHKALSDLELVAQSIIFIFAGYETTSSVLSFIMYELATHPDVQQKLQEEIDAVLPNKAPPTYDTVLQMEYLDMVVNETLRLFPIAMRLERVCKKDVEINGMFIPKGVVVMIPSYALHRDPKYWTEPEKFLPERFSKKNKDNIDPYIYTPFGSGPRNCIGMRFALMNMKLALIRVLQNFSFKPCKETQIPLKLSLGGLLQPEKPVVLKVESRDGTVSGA

Compound | NAS (mean ± SD) (NASH mice [1]) | Steatosis score 0, number of mice (NASH mice [1]) | Steatosis score 1, number of mice (NASH mice [1]) | Lobular inflammation score 2, number of mice (NASH mice [1]) | Hepatocyte ballooning score 2, number of mice (NASH mice [1]) | Lobular inflammation score 3, number of mice (NASH mice [1]) | Whole blood glucose levels vs Vehicle group (NASH mice [2]) | Plasma ALT (mean ± SD) (NASH mice [2]) | Liver weight (mean ± SD) (NASH induced HCC mice) | Liver-to-body weight ratio (mean ± SD) (NASH induced HCC mice) | Mean body weight on the day of sacrifice vs Vehicle group (NASH mice [3]) | Mean liver weight on the day of sacrifice vs Vehicle group (NASH mice [3]) | Mean liver-to-body weight ratio on the day of sacrifice vs Vehicle group (NASH mice [3]) | Liver weight (mean ± SD) (NASH mice [3]) | Liver-to-body weight ratio (mean ± SD) (NASH mice [3]) | Maximum diameter of nodules (mean ± SD) (mice with HCC; 18 wk) | Number of nodules (mean ± SD) (mice with HCC; 18 wk) | Fibrosis area at the time of sacrifice vs Vehicle group (NASH mice [5]) | Sirius red-positive area (mean ± SD) (NASH mice [5]) | Body weight (mean ± SD) (NASH induced HCC mice) | also measured
Clc1ccc(Cn2c(CN3CCCC3)nc3ccccc32)cc1 [Compound D, clemizole] | 4.3 ± 1.0 | 1 | 5 | 1 | 6 | 1 | no significant differences | 18 ± 10 U/L | 1710 ± 113 mg | 6.3 ± 0.8% | no significant differences | no significant differences | no significant differences | 1047 ± 76 mg | 6.8 ± 0.4% | 0.7 ± 1.2 mm | 0.3 ± 0.6 | no significant differences | 0.95 ± 0.39% | – | NAS compared with the Vehicle group (NASH mice [1]): significant reduction; Lobular inflammation score 1, number of mice (NASH mice [1]): 4; Role of CYP3A4 in clemizole biotransformation in human liver (CYP3A4): mediates the majority of this drug biotransformation reaction; Mice died before reaching week 18 (NASH induced HCC mice; male, C57BL/6, mouse, in vivo): one out of 4; Survived mice with absence of visible tumor nodules on the liver surface (mice with HCC; 18 wk): 2 out of 3; Tumor formation in mouse livers (FIG. 8, representative images) (mice with HCC; mouse, in vivo): inhibition of tumor formation; HCC status on follow up dynamic liver CT imaging ([4]; Patient #1, 200 mg clemizole orally thrice daily, after 3 months): the HCC remained stable; Tolerability (complaints or side effects) ([4]; Patient #1, 200 mg thrice daily, after 3 months): no complaints or side effects; HCC status on follow up dynamic liver magnetic resonance imaging ([4]; Patient #2, 200 mg clemizole orally thrice daily, after 5 months): the HCC remained stable; Tolerability (complaints or side effects) ([4]; Patient #2, 200 mg thrice daily, after 5 months): no complaints or side effects
CNC(=O)c1cc(Oc2ccc(NC(=O)Nc3ccc(Cl)c(C(F)(F)F)c3)cc2)ccn1 [sorafenib] | – | – | – | – | – | – | – | – | – | – | – | – | – | – | – | – | – | – | – | – | Toxicity: diarrhea (HCC [6]; all grades): over 40%; Toxicity: fatigue (HCC [6]; all grades): 30%; Toxicity: hand-foot skin reaction (HCC [6]; all grades): over 30%; Grade 3/4 drug-related toxicity: diarrhea (HCC [6]): 8.0%; Grade 3/4 drug-related toxicity: fatigue (HCC [6]): 9.5%; Grade 3/4 drug-related toxicity: hand-foot skin reaction (HCC [6]): 5.1%; Median time to progression (TTP) (HCC [6]): 4.2 months; Hypophosphatemia (HCC [7]; grade 3): 11%; Thrombocytopenia (HCC [7]; grade 3 or 4): 4%; Median time to radiologic progression (HCC [7]): 5.5 months; Overall incidence of treatment-related adverse events (HCC [7]): 80%
CCN(CC)CCC[C@@H](C)Nc1ccnc2cc(Cl)ccc12 [Compound B, R-chloroquine] | 4.3 ± 0.5 | 1 | 5 | 4 | 5 | – | no significant differences | 14 ± 6 U/L | 1616 ± 635 mg | 7.9 ± 3.0% | no significant differences | no significant differences | no significant differences | 934 ± 135 mg | 6.5 ± 0.4% | 11.1 ± 7.0 mm | 2.0 ± 1.4 | no significant differences | 0.78 ± 0.35% | 20.4 ± 0.3 g | NAS compared with the Vehicle group (NASH mice [1]): significant reduction; Lobular inflammation score 1, number of mice (NASH mice [1]): 2; Hepatocyte ballooning score 1, number of mice (NASH mice [1]): 1; Mice died before reaching week 18 (NASH induced HCC mice; [8]): Two out of 4; Body weight (mean ± SD) (NASH mice [3]): 14.5 ± 2.4 g
CCN(CC)CCC[C@H](C)Nc1ccnc2cc(Cl)ccc12 [Compound C, S-chloroquine] | 5.3 ± 0.5 | – | 6 | 4 | 6 | 2 | no significant differences | 9 ± 3 U/L | 1353 ± 178 mg | 7.6 ± 0.1% | significantly decreased | significantly decreased | no significant differences | 810 ± 77 mg | 5.9 ± 0.4% | 3.5 ± 5.0 mm | 1.5 ± 2.1 | no significant differences | 0.90 ± 0.44% | 17.9 ± 2.8 g | Mice died before reaching week 18 (NASH induced HCC mice; [8]): Two out of 4; Body weight (mean ± SD) (NASH mice [3]): 13.7 ± 1.3 g
CCN(CC)CCCC(C)Nc1ccnc2cc(Cl)ccc12 (stereo not drawn) [Compound A, Recemic mixture of R-chloroquine and S-chloroquine] | 5.2 ± 0.8 | 1 | 5 | 1 | 3 | 5 | no significant differences | 21 ± 13 U/L | 1443 ± 0 mg | 8.2 ± 0.0% | no significant differences | no significant differences | no significant differences | 1045 ± 243 mg | 7.0 ± 1.4% | 6.1 ± 0.0 mm | 2.0 ± 0.0 | no significant differences | 0.87 ± 0.23% | 17.5 ± 0.0 g | Hepatocyte ballooning score 1, number of mice (NASH mice [1]): 3; Mice died before reaching week 18 (NASH induced HCC mice; [8]): Three out of 4; Body weight (mean ± SD) (NASH mice [3]): 15.0 ± 1.9 g
